The results in this text go back to ChEMBL document CHEMBL1201862, “PubChem BioAssay data set” (2004).

Some test systems named below: EKVX; HCT-15; HOP-62; HOP-92; SN12C; MDA-MB-435; A549; SK-MEL-5; NCI-H226; MDA-N; UO-31; SK-MEL-28; MCF7; CAKI-1; MOLT-4; UACC-62; K562; RXF 393; SF-268.
Assay in all cases: growth of human tumour cells (NCI), 48 h

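Dose response: 5 concentrations. Exposure: 48 h. Format: 96-well plates. Endpoint: linear interpolation; highest concentration if not reached. GI50: concentration for 50% inhibition of growth.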 Activity calls are given as the source filed them. Cut-off read from the data, not from the text of the source: active = GI50 up to about 1.1 µM and inactive = higher. Some results are limits rather than exact numbers.

Take `O=[N+]([O-])/C=C/c1cn(CCCCCCCCCCCCn2cc(/C=C/[N+](=O)[O-])c3ccccc32)c2ccccc12`: the GI50 was > 100 µM (inactive) with EKVX; over 100 µM in the assay on HCT-15; > 100 µM (inactive) in the assay with HOP-62; > 100 µM (inactive) with HOP-92; > 100 µM (inactive) in the assay on SN12C; > 100 µM (inactive) with MDA-MB-435. In addition, the GI50 in the assay on A549, with SK-MEL-5, in the assay with NCI-H226, with MDA-N, in the assay with UO-31 and with SK-MEL-28 was > 100 µM (inactive) each time. Further, the GI50 in the assay with MCF7, with CAKI-1, in the assay with MOLT-4 and in the assay on UACC-62 was > 100 µM (inactive) throughout.

Consider `Cc1c(F)c(N)c2c(=O)cc(-c3ccc(NC(=O)CN(C)C)c(F)c3)oc2c1F`, for which the GI50 in the assay on HCT-15 was 61.8 µM; with SN12C, > 100 µM (inactive); in the assay on MDA-MB-435, 48.2 µM (inactive); in the assay on K562, 26.7 µM (inactive); in the assay on A549, 89.7 µM (inactive); with RXF 393, > 100 µM (inactive). Also, the GI50 was 53.5 µM (inactive) in the assay on SK-MEL-5; 11 µM (inactive) in the assay with NCI-H226; 28.4 µM (inactive) with SF-268; > 100 µM (inactive) in the assay with MDA-N; 86.1 µM (inactive) in the assay with UO-31; 47.9 µM (inactive) with SK-MEL-28. The GI50 was 7.29 µM (inactive) in the assay with MCF7, 2.45 µM (inactive) in the assay on CAKI-1, 15.5 µM (inactive) with MOLT-4 and 26.4 µM (inactive) in the assay with UACC-62.

Regarding `S=C(c1c[nH]c2ccccc12)N1CCN(Cc2ccccc2)CC1`, the GI50 was 18 µM (inactive) in the assay with EKVX; 13.6 µM in the assay with HCT-15; 18.5 µM (inactive) in the assay with HOP-62; 16.5 µM (inactive) in the assay with SN12C; 15.5 µM (inactive) in the assay with MDA-MB-435; 27.1 µM (inactive) with K562. For the same molecule, the GI50 was 16.1 µM (inactive) with RXF 393; 12.1 µM (inactive) with SK-MEL-5; 15 µM (inactive) in the assay on NCI-H226; 19.5 µM (inactive) in the assay with SF-268; 15.6 µM (inactive) in the assay with MDA-N; 6.61 µM (inactive) in the assay on UO-31. Besides, the GI50 is 17.3 µM (inactive) in the assay on SK-MEL-28; 22.2 µM (inactive) in the assay on MCF7; 20.1 µM (inactive) in the assay with CAKI-1; 16.6 µM (inactive) with MOLT-4; 15.6 µM (inactive) with UACC-62.

As for `Cc1cc2c(cc1Cl)SC(NNC1=NCCN1)=NS2(=O)=O`, the GI50 was > 10 µM (inactive) with EKVX; over 10 µM with HCT-15; > 10 µM (inactive) in the assay on HOP-62; > 10 µM (inactive) in the assay with SN12C; > 10 µM (inactive) with MDA-MB-435; > 10 µM (inactive) in the assay on K562. Besides, the GI50 with A549, in the assay with RXF 393, in the assay with SK-MEL-5, in the assay on NCI-H226, in the assay on SF-268 and in the assay on MDA-N was > 10 µM (inactive) throughout. The GI50 was > 10 µM (inactive) in the assay on UO-31; > 10 µM (inactive) in the assay with SK-MEL-28; 0.00248 µM (active) in the assay on MCF7; > 10 µM (inactive) with CAKI-1; > 10 µM (inactive) in the assay on MOLT-4; > 10 µM (inactive) in the assay on UACC-62.

For `COC(=O)c1cc2c3c(c(C(C)=O)c(OC)c2[nH]1)NCC3`, the GI50 in the assay with EKVX is > 50 µM (inactive); in the assay with HCT-15 it was over 50 µM; in the assay on HOP-62, > 50 µM (inactive); with SN12C it was > 50 µM (inactive); in the assay on MDA-MB-435, > 50 µM (inactive); with K562, > 50 µM (inactive). Also, the GI50 in the assay on RXF 393 was > 50 µM (inactive); in the assay on SK-MEL-5 it was > 50 µM (inactive); in the assay with NCI-H226, 34.5 µM (inactive); in the assay on SF-268 it was > 50 µM (inactive); in the assay on MDA-N it was > 50 µM (inactive); with UO-31, > 50 µM (inactive). Moreover, the GI50 in the assay with MCF7, in the assay with CAKI-1, in the assay with MOLT-4 and with UACC-62 was > 50 µM (inactive) each time.

As for `C/C(=N/NC(=S)N1CCCCC1)c1cccc(/C(C)=N\NC(=S)N2CCCCC2)n1`, the GI50 with EKVX is 2.13 µM (inactive); in the assay on HCT-15, 1.66 µM; with HOP-62, 4.71 µM (inactive); in the assay on SN12C, 1.93 µM (inactive); with MDA-MB-435, 1.92 µM (inactive); in the assay with K562, 2.28 µM (inactive). In addition, the GI50 was 3 µM (inactive) in the assay with A549; 2.26 µM (inactive) in the assay with RXF 393; 1.95 µM (inactive) with SK-MEL-5; 2.05 µM (inactive) in the assay with NCI-H226; 3.22 µM (inactive) in the assay on SF-268; 1.51 µM (inactive) with MDA-N. In addition, the GI50 in the assay on UO-31 is 1.45 µM (inactive); in the assay on SK-MEL-28, 2.01 µM (inactive); in the assay with MCF7, 1.86 µM (inactive); in the assay with CAKI-1 it was 2.08 µM (inactive); in the assay with MOLT-4, 2.4 µM (inactive); in the assay on UACC-62 it was 2.42 µM (inactive).

Take `CC(C)=CC(C)C(C(O)CCC1(c2ccoc2)OCCO1)S(=O)(=O)c1ccccc1` (stereo not drawn): the GI50 in the assay on EKVX is > 100 µM (inactive); with HCT-15, over 100 µM; with HOP-62, > 100 µM (inactive); with SN12C it was > 100 µM (inactive); with MDA-MB-435 it was > 100 µM (inactive); in the assay with A549, > 100 µM (inactive). For the same molecule, the GI50 in the assay on RXF 393, in the assay on SK-MEL-5, with NCI-H226, with SF-268, in the assay on MDA-N and in the assay with UO-31 was > 100 µM (inactive) throughout. Besides, the GI50 with SK-MEL-28, with MCF7 and with CAKI-1 was > 100 µM (inactive) throughout.

For the molecule `COC(C/C(=C/CO[Si](C(C)C)(C(C)C)C(C)C)C(=O)N(C(=O)OC(C)(C)C)c1ccccc1I)OC`, the GI50 with HCT-15 is 33.4 µM; in the assay on HOP-62, 57.7 µM (inactive); in the assay on HOP-92 it was 2.16 µM (inactive); in the assay with SN12C it was 52 µM (inactive); in the assay with MDA-MB-435 it was 32.5 µM (inactive); with K562, > 100 µM (inactive). Also, the GI50 was 28.8 µM (inactive) in the assay on A549; 56.2 µM (inactive) with SK-MEL-5; > 100 µM (inactive) in the assay with NCI-H226; > 100 µM (inactive) in the assay on SF-268; 26.9 µM (inactive) in the assay with MDA-N; 42.1 µM (inactive) in the assay with UO-31. The GI50 in the assay with SK-MEL-28 is 67.3 µM (inactive); in the assay on MCF7, 18.7 µM (inactive); in the assay with CAKI-1, 33.2 µM (inactive); in the assay with MOLT-4, 22.9 µM (inactive); with UACC-62, > 100 µM (inactive).

With `O=C1CSC(/C=C/c2ccccc2)N1c1ccc(-c2ccc(-n3c(-c4ccccc4)nc4ccccc4c3=O)cc2)cc1` (stereo not drawn), the GI50 was 15.5 µM (inactive) in the assay on EKVX; 20.7 µM in the assay with HCT-15; 28.5 µM (inactive) in the assay with HOP-62; 18 µM (inactive) in the assay with HOP-92; 27.4 µM (inactive) with SN12C; 19.4 µM (inactive) with MDA-MB-435. For the same molecule, the GI50 in the assay with K562 was 25.9 µM (inactive); with A549, 24 µM (inactive); with SK-MEL-5, 13.8 µM (inactive); in the assay with SF-268, 35.6 µM (inactive); with MDA-N, 23.4 µM (inactive); in the assay with UO-31, 14.2 µM (inactive). The GI50 in the assay on SK-MEL-28 was 18.8 µM (inactive); in the assay on MCF7, 22.6 µM (inactive); with CAKI-1 it was 33.7 µM (inactive); in the assay on MOLT-4, 15.7 µM (inactive); in the assay on UACC-62, 24.3 µM (inactive).

Take `CCOC(=O)C(C#N)C1=CC(=O)C(=O)c2ccc(OC)cc21` (stereo not drawn): the GI50 in the assay with EKVX was 22.7 µM (inactive); in the assay with HCT-15 it was 23.8 µM; with HOP-62, 22 µM (inactive); with SN12C, 18.6 µM (inactive); in the assay on MDA-MB-435 it was 17.6 µM (inactive); with K562, 36.6 µM (inactive). Further, the GI50 with A549 is 19.7 µM (inactive); in the assay on RXF 393, 21.8 µM (inactive); in the assay on SK-MEL-5 it was 15.2 µM (inactive); in the assay on NCI-H226, 21.6 µM (inactive); in the assay with SF-268, 30.2 µM (inactive); with MDA-N, 5.83 µM (inactive). In addition, the GI50 is 17.5 µM (inactive) in the assay on UO-31; 21.3 µM (inactive) in the assay on SK-MEL-28; 16.1 µM (inactive) in the assay on MCF7; 29 µM (inactive) with CAKI-1; 48.5 µM (inactive) with MOLT-4; 15.2 µM (inactive) in the assay with UACC-62.

`CC(C)(C)C(=O)CC1=Nc2ccccc2SC1(O)CC(=O)C(C)(C)C` (stereo not drawn): the GI50 in the assay with EKVX was 16.2 µM (inactive); with HCT-15, 15.3 µM; in the assay on HOP-62, 26.3 µM (inactive); with SN12C it was 21 µM (inactive); in the assay on MDA-MB-435 it was 22.6 µM (inactive); in the assay with K562 it was 21.5 µM (inactive). The GI50 with A549 was 20.5 µM (inactive); in the assay on RXF 393, 23.5 µM (inactive); in the assay on SK-MEL-5 it was 18.9 µM (inactive); with NCI-H226 it was 15.2 µM (inactive); in the assay with SF-268, 25.8 µM (inactive); in the assay with MDA-N it was 32.7 µM (inactive). Further, the GI50 in the assay on UO-31 is 12.3 µM (inactive); in the assay on SK-MEL-28 it was 22.8 µM (inactive); with MCF7 it was 25 µM (inactive); with CAKI-1, 14.7 µM (inactive); with MOLT-4, 3.48 µM (inactive); in the assay on UACC-62, 11.8 µM (inactive).

Regarding `O=C(Nc1ccc2nc(O)n[n+]([O-])c2c1)C(F)(F)F`, the GI50 in the assay with EKVX is > 100 µM (inactive); in the assay with HCT-15, over 100 µM; with HOP-62, > 100 µM (inactive); with SN12C, > 100 µM (inactive); with MDA-MB-435, > 100 µM (inactive); in the assay on K562, > 100 µM (inactive). Further, the GI50 in the assay on A549, in the assay on SK-MEL-5, with NCI-H226, in the assay on SF-268, with MDA-N and with UO-31 was > 100 µM (inactive) in each case. Moreover, the GI50 in the assay with SK-MEL-28, in the assay on MCF7, in the assay on CAKI-1, in the assay with MOLT-4 and with UACC-62 was > 100 µM (inactive) throughout.
